Results on 25 molecules are retold here after ChEMBL document CHEMBL5291721, “A preclinical secondary pharmacology resource illuminates target-adverse drug reaction associations of marketed drugs” (Nat Commun, 2023).

As a reminder, the AC50 is the midpoint of the concentration-response curve, whichever way the signal moves. A higher AC50 goes with weaker potency.

The target in assay [1] is Beta-2 adrenergic receptor (Homo sapiens, UniProt P07550).
Another assay has as its target T1, B2 bradykinin receptor (Homo sapiens, UniProt P30411).
T1 sequence (P30411 whole entry): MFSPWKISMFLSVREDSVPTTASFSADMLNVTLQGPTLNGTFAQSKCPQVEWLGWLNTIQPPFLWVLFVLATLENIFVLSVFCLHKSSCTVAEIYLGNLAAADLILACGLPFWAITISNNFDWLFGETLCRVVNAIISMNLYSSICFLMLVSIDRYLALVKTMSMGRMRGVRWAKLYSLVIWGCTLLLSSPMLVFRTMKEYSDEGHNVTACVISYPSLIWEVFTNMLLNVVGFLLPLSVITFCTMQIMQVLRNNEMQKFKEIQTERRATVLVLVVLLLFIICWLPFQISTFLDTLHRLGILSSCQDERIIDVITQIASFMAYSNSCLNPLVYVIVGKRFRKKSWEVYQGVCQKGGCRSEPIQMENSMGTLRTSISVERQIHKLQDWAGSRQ

For a further assay, the target named is T2, Endothelin-1 receptor (Homo sapiens, UniProt P25101).
T2 sequence (P25101 whole entry): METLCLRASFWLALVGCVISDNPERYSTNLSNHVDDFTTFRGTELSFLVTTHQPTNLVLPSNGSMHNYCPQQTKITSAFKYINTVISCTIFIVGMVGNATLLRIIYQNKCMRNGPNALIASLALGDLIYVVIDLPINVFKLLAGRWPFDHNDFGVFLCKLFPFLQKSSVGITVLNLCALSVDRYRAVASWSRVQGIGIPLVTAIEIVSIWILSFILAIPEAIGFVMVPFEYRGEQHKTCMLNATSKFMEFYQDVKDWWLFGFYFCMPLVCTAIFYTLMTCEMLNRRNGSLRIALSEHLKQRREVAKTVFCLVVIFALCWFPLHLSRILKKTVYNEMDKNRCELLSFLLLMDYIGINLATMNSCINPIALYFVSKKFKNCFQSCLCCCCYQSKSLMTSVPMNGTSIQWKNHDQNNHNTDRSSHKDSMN

The target of the next assay is T3, Progesterone receptor (Homo sapiens, UniProt P06401).
T3 sequence (P06401 whole entry): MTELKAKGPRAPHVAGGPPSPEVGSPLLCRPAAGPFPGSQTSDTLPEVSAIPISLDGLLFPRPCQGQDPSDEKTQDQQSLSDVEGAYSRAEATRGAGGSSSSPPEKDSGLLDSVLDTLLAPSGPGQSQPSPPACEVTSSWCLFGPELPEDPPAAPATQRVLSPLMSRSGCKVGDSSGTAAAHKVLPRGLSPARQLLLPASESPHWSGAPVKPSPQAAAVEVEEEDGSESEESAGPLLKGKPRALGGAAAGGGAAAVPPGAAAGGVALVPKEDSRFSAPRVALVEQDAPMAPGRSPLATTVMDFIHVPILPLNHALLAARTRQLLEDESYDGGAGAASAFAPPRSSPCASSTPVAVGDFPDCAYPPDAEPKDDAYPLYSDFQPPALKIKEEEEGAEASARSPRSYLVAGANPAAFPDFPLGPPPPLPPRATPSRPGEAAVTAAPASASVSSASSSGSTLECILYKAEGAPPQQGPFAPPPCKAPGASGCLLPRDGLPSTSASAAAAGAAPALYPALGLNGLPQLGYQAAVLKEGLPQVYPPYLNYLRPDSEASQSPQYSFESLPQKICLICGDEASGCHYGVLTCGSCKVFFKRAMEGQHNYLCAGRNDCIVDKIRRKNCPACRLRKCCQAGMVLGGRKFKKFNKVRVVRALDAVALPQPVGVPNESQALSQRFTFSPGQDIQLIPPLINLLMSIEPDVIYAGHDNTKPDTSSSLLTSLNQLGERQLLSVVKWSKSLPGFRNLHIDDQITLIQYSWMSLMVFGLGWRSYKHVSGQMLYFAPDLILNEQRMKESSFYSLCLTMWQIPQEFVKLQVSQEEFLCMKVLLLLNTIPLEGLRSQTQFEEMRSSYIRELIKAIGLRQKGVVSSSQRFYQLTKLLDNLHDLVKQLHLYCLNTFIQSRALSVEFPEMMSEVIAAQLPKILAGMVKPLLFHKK
In kind it is functional.

The next assay has as its target Histamine H1 receptor (Homo sapiens, UniProt P35367).
The target in the next assay is Cannabinoid receptor 1 (Homo sapiens, UniProt P21554). In kind it is functional, cell-based.
In another assay the target is T4, Thromboxane A2 receptor (Homo sapiens, UniProt P21731).
T4 sequence (P21731 whole entry): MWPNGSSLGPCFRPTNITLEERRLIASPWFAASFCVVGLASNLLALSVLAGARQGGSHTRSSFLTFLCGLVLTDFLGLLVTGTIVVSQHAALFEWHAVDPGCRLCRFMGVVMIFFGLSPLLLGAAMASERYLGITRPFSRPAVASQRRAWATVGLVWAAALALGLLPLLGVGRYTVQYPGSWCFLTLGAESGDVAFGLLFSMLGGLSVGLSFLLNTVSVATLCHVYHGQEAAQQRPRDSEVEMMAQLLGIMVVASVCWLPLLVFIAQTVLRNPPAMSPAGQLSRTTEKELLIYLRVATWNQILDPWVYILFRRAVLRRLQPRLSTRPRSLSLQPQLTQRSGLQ
It is filed as functional, cell-based.

The target in assay [2] is T5, 5-hydroxytryptamine receptor 1A (Homo sapiens, UniProt P08908).
T5 sequence (P08908 whole entry): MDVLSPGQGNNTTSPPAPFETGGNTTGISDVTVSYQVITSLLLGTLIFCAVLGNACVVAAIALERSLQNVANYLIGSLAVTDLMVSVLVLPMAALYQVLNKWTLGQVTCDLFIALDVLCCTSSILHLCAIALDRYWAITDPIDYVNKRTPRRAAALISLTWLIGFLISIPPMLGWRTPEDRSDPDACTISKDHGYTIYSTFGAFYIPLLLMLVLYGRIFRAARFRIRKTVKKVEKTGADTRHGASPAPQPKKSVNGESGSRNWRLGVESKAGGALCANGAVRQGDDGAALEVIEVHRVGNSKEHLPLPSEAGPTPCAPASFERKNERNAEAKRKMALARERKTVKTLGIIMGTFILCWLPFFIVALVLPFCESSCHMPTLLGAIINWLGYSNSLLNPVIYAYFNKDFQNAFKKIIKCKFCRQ

A further assay concerns the target Prothrombin (Homo sapiens, UniProt P00734). It is filed as functional.

SMILES strings stand for the structures. Where only a bound is given, the exact number is not on record here.
Further: assay procedure not described here.

Beta-2 adrenergic receptor, sequence (P07550 whole entry): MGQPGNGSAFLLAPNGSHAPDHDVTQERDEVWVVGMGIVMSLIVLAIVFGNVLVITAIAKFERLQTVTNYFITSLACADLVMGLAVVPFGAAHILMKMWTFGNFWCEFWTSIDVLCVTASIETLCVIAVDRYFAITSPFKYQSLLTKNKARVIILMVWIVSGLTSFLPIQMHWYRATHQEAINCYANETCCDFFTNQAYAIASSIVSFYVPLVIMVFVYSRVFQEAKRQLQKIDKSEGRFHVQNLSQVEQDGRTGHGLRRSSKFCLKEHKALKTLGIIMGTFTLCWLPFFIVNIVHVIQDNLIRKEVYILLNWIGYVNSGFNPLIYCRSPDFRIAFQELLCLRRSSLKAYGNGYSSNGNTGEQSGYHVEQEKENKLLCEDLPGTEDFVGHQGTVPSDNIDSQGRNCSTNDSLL
Cannabinoid receptor 1, sequence (P21554 whole entry): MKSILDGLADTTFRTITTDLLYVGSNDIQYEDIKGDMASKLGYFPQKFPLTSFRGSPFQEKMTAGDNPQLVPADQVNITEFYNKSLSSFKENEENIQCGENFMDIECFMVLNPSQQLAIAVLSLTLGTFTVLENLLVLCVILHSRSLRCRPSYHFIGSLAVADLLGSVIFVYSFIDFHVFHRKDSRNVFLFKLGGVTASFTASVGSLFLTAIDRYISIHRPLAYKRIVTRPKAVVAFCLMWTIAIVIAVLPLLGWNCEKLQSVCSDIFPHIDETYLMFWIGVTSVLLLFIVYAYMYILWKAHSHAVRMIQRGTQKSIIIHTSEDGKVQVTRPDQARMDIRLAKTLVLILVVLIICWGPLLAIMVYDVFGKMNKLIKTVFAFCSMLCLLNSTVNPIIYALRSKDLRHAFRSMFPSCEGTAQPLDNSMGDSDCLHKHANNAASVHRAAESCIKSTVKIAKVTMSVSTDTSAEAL
Histamine H1 receptor, sequence (P35367 whole entry): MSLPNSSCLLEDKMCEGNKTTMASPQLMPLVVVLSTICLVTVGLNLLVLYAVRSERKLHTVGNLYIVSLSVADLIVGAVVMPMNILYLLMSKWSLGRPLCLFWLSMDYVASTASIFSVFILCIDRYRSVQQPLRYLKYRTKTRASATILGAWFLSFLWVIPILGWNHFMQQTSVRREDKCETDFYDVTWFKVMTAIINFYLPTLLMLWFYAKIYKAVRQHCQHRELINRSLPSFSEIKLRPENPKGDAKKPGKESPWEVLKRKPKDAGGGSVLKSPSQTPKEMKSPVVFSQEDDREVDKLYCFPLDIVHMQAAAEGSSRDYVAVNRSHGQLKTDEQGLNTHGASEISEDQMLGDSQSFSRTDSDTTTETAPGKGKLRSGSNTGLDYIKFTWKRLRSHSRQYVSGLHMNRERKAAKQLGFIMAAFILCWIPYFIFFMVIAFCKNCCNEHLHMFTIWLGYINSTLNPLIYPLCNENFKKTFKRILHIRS

Consider `CCCCN1C[C@H](O)[C@@H](O)[C@H](O)[C@H]1CO`, for which the AC50 (in assay [1]; at B2 bradykinin receptor; on Endothelin-1 receptor; at Progesterone receptor; on Histamine H1 receptor) was > 30 µM in each case.

For `CN(C)CCC=C1c2ccccc2C(C)(C)c2ccccc21`, the AC50 on Endothelin-1 receptor was > 30 µM; on Progesterone receptor it was > 30 µM; at Histamine H1 receptor it was 0.0369 µM; at Cannabinoid receptor 1, > 30 µM.

For `Nc1nc(NC2CC2)c2ncn([C@H]3C=C[C@@H](CO)C3)c2n1` [ABACAVIR], the AC50 at B2 bradykinin receptor, at Endothelin-1 receptor, at Progesterone receptor, on Histamine H1 receptor and on Cannabinoid receptor 1 was > 30 µM in each case.

On to `CC(=O)NCCCS(=O)(=O)O` [ACAMPROSATE], for which the AC50 at B2 bradykinin receptor, on Endothelin-1 receptor, on Progesterone receptor, on Histamine H1 receptor and at Cannabinoid receptor 1 was > 30 µM each time.

In the case of `CC(=O)Nc1ccc(O)cc1` [ACETAMINOPHEN], the AC50 (on Thromboxane A2 receptor; in assay [2]; on Endothelin-1 receptor; at Progesterone receptor; on Prothrombin; on Cannabinoid receptor 1) was > 30 µM throughout.

Regarding `COc1cc2nc(N(C)CCCNC(=O)C3CCCO3)nc(N)c2cc1OC` (stereo not drawn) [ALFUZOSIN], the AC50 (in assay [1]; on B2 bradykinin receptor; on Endothelin-1 receptor; on Progesterone receptor; on Histamine H1 receptor; at Cannabinoid receptor 1) was > 30 µM in each case.

Regarding `CNC(=O)c1ccccc1Sc1ccc2c(/C=C/c3ccccn3)n[nH]c2c1` [AXITINIB], the AC50 was > 10 µM in assay [1]; > 30 µM on Endothelin-1 receptor; > 30 µM at Progesterone receptor; > 30 µM on Histamine H1 receptor; > 30 µM on Cannabinoid receptor 1.

As to `O=C(Cc1ccc(-c2ccccc2)cc1)Nc1ccccn1` [DIFENPIRAMIDE], the AC50 (on Thromboxane A2 receptor; in assay [2]; at Prothrombin; on Histamine H1 receptor; on Cannabinoid receptor 1) was > 30 µM throughout.

Consider `c1ccc([C@H]2CN3CCSC3=N2)cc1` [LEVAMISOLE], for which the AC50 (in [1]; on Endothelin-1 receptor; at Progesterone receptor; at Cannabinoid receptor 1) was > 30 µM throughout.

For the molecule `C[C@H]1CNCCc2ccc(Cl)cc21` [LORCASERIN], the AC50 at Endothelin-1 receptor is > 30 µM; at Progesterone receptor, > 30 µM; on Histamine H1 receptor it was 28 µM; on Cannabinoid receptor 1, 2.6 µM.

In the case of `CNC1Cc2ccccc2N(C)c2ccccc21` (stereo not drawn) [METAPRAMINE], the AC50 at Endothelin-1 receptor was > 30 µM; at Progesterone receptor it was > 30 µM; at Histamine H1 receptor, 0.34 µM; on Cannabinoid receptor 1, > 30 µM.

Take `Cc1nc([N+](=O)[O-])cn1-c1ccc([N+](=O)[O-])cc1` [NITREFAZOLE]: the concentration at half-maximal activity (AC50) at B2 bradykinin receptor, on Endothelin-1 receptor, at Progesterone receptor, on Histamine H1 receptor and at Cannabinoid receptor 1 was > 30 µM each time.

Consider `COc1ccc(CC(C)(C)NC[C@H](O)c2cc(O)cc3c2OCC(=O)N3)cc1` [OLODATEROL], for which the AC50 at Endothelin-1 receptor, on Progesterone receptor, at Histamine H1 receptor and at Cannabinoid receptor 1 was > 30 µM throughout.

With `CC(C)(C)NC[C@H](O)COc1ccccc1C1CCCC1` [PENBUTOLOL], the AC50 on Thromboxane A2 receptor was > 30 µM; in assay [2], 0.0036 µM; on Prothrombin, > 30 µM.

Take `CC(C)(S)[C@@H](N)C(=O)O` [PENICILLAMINE]: the AC50 (on Thromboxane A2 receptor; in assay [2]; at Prothrombin) was > 30 µM each time.

For `C1CCC(C(CC2CCCCN2)C2CCCCC2)CC1` (stereo not drawn) [PERHEXILINE], the AC50 on Endothelin-1 receptor, at Progesterone receptor and on Cannabinoid receptor 1 was > 30 µM in each case.

As to `CN(C)S(=O)(=O)c1ccc2c(c1)N(CCCN1CCC(CCO)CC1)c1ccccc1S2` [PIPOTIAZINE], the values for the AC50 (at Thromboxane A2 receptor; in [2]; on Prothrombin) were > 30 µM, 0.32 µM and > 30 µM, respectively.

For the molecule `c1cnc(N2CCN(Cc3ccc4c(c3)OCO4)CC2)nc1` [PIRIBEDIL], the AC50 at Endothelin-1 receptor, on Progesterone receptor, at Histamine H1 receptor and on Cannabinoid receptor 1 was > 30 µM each time.

With `COc1cc(NC(C)CCCN)c2ncccc2c1` (stereo not drawn) [PRIMAQUINE], the AC50 was > 30 µM at Thromboxane A2 receptor; > 30 µM on B2 bradykinin receptor; > 30 µM on Endothelin-1 receptor; 20 µM at Progesterone receptor; > 30 µM on Prothrombin.

Take `C=C[C@H]1C[N@@]2CC[C@H]1C[C@H]2[C@H](O)c1ccnc2ccc(OC)cc12` [QUININE]: the AC50 (at Thromboxane A2 receptor; in [2]; on Prothrombin) was > 30 µM in each case.

For the molecule `CCC(=O)NCC[C@@H]1CCc2ccc3c(c21)CCO3` [RAMELTEON], the half-maximal activity concentration (AC50) (on Thromboxane A2 receptor; in [2]; at Prothrombin) was > 30 µM in each case.

Take `COc1ccccc1OCC(O)CN1CCN(CC(=O)Nc2c(C)cccc2C)CC1` (stereo not drawn) [RANOLAZINE]: the AC50 was 5.7 µM in assay [1]; > 30 µM on B2 bradykinin receptor; > 30 µM at Endothelin-1 receptor; > 30 µM on Progesterone receptor; > 30 µM at Histamine H1 receptor.

`CCOC(=O)[C@H](CCc1ccccc1)N[C@@H](C)C(=O)N1[C@H](C(=O)O)C[C@H]2CCCC[C@@H]21` [TRANDOLAPRIL]: the AC50 (at Thromboxane A2 receptor; in [2]; on Prothrombin) was > 30 µM in each case.

On to `N[C@@H]1[C@H]2CN(c3nc4c(cc3F)c(=O)c(C(=O)O)cn4-c3ccc(F)cc3F)C[C@@H]12` [TROVAFLOXACIN], for which the AC50 at Endothelin-1 receptor, at Progesterone receptor and on Cannabinoid receptor 1 was > 30 µM each time.

On to `CCCCCCOc1nsnc1C1=CCCN(C)C1` [XANOMELINE], for which the values for the AC50 (at Thromboxane A2 receptor; in [2]; on Prothrombin) were > 30 µM, 0.243 µM and > 30 µM, respectively.
